Data from BindingDB's records for doi:10.1016/j.bmc.2019.115177 (National Centre For Scientific Research "Demokritos, 2019).

Assays:
[1] = molecular target: Insulin-regulated aminopeptidase (Homo sapiens); assay: Inhibition of human recombinant IRAP expressed in baculovirus infected Sf9 cells using omniMMP fluorogenic substrate incubated for 5 to 10 mins by fluorescence spectrophotometry analysis
[2] = molecular target: Insulin-regulated aminopeptidase (Homo sapiens); assay: Competitive inhibition of human recombinant IRAP expressed in baculovirus infected sf9 cells using L-AMC as substrate incubated for 5 to 10 mins by Michaelis-Menten analysis

Compound	IC50 [1] [µM]	Ki [2] [µM]
O=C(Cn1cccc(O)c1=O)NCCc1ccc(-c2ccccc2)cc1	24.8	13
CC(C)[C@H](NC(=O)Cn1cccc(O)c1=O)C(=O)OCc1ccccc1	33.6	17.6
O=C(Cn1cccc(O)c1=O)N[C@@H](Cc1c[nH]c2ccccc12)C(=O)OCc1ccccc1	10.9	5.7
COc1cccn(CC(=O)NCCc2ccc(-c3ccccc3)cc2)c1=S	16.7	8.7

Results, then the compound that gave them:

IC50 [1] [µM]	Ki [2] [µM]	Compound
7.2	3.8	CCCC[C@H](N)C(=O)NNc1cccc(C(=O)N[C@@H](Cc2c[nH]c3ccccc23)C(=O)OCc2ccccc2)c1
> 10		CCCC[C@H](N)C(=O)Nc1ccc(C(=O)N[C@@H](Cc2c[nH]c3ccccc23)C(=O)OCc2ccccc2)cc1
8.8	4.6	CCCC[C@H](N)C(=O)Nc1cc(C(=O)N[C@@H](Cc2c[nH]c3ccccc23)C(=O)OCc2ccccc2)ccn1
2.5		N[C@@H](CCc1ccccc1)C(=O)NNc1ccc(C(=O)N[C@@H](Cc2c[nH]c3ccccc23)C(=O)OCc2ccccc2)cc1
6.2	3.2	CCCC[C@H](N)C(=O)Nc1cccc(C(=O)N[C@@H](Cc2c[nH]c3ccccc23)C(=O)OCc2ccccc2)c1
2.5	1.3	CCCC[C@H](N)C(=O)NNc1ccc(C(=O)N[C@@H](Cc2c[nH]c3ccccc23)C(=O)OCc2ccccc2)cc1
